Laboratory results taken from patent US5308763A, “Method of making primary culture of olfactory neurons” (The Johns Hopkins University, priority 1992, dated 1994).
“Also recorded” adds a separate entry of the source. Where two headings read alike, the source gives them in different places. Values belong to the molecule of their own block, whether it stands above or below them.

Assays:
adenylyl cyclase = assay: Adenylyl cyclase augmentation in olfactory neuronal cultures by odorants; format: cell-based
Excerpt: The cells of the olfactory epithelium from which the neuronal cells have been purified are mainly the sustentacular cells and the basal cells. These cells can be distinguished on the basis of morphology, marker proteins, and lack of excitability.

NG-108 cells = assay: Effect of odorant on cyclic AMP levels in NG-108 cells (RIA); format: cell-based; details: for activity at 10 µM: 10 uM IBMP, ± SEM, read-out: cAMP
Method: (§1) After 5-7 days in primary culture, olfactory neuronal cells were exposed to odorants and cyclic AMP levels assayed. To avoid transient changes in intracellular cyclic AMP levels caused by feeding, the medium was changed to 0.5 ml of MEM-AIR containing 0.1% (w/v) RIA-grade BSA 2-3 hr before use. At zero-time, cultures received an additional 0.5 ml of MEM-AIR with or without 10 uM 2-isobutyl-3-methoxypyrazine (IBMP). At various times thereafter the entire medium was aspirated and the reaction quenched by addition of 6% in cold TCA. Cellular extracts were processed and RIA for cyclic AMP was performed as described below.
(§2) Primary cultures of olfactory neurons were plated in laminin-treated 24-well cluster dishes at a density of 1×10^6 cells per cm^2. Cells were used between days 5-7 in culture. Thirty min before experimentation, monolayers were fed wtih MEM-AIR containing 0.1% (w/v) RIA grade BSA. Immediately prior to use, odorants were diluted from a 50 mM stock in absolute ethanol to 10 uM. At zero time, 0.5 ml of MEM-AIR containing 0.1% RIA grade BSA and odorant at twice the final concentration was added to wells.
(§3) The experiment was terminated by aspiration of culture medium and addition of 200 ul of 6% (w/v) trichloroacetic acid (TCA) at 0° C. Culture wells were heated to 56° C. in an oven for 1 hr, scraped, sonicated, chilled, and microfuged for 30 sec. The supernatants were extracted 4 times with 5 volumes of ether, and the ether-extracted water phase was lyophilized to dryness. Samples were resuspended in 200 ul of RIA-NEN buffer (NEN/DuPont, Boston, Mass.) and RIA assay was performed according to specifications of the cyclic AMP kit.
1 NG-108 cells (a generous gift from Dr. Karen Braas, University of Vermont, Burlington, Vt.) were grown and maintained as previously described (Braas, Childers and U'Prichard, 1983). For experimentation, cells were plated in 24-well clustered dishes and treated similarly to olfactory neurons. NG-108 cells are hybrid cells of a globlastoma and a non-olfactory neural-like cell. NG-108 is a continuous cell line.

[1] = tested on: Primary olfactory neurons; assay: Effect of odorant on cyclic AMP levels in primary olfactory neuron cultures (RIA); format: cell-based, rat; details: for activity at 10 µM: Rattus norvegicus, Neuron, 10 uM IBMP, ± SEM, read-out: cAMP
Method: as §1, §2, §3

olfactory neurons [2] = assay: Evaluation of substrate matrix substances for plating efficiency and morphology of olfactory neurons; format: cell-based, rat; details: for plating efficiency (in words) / process / neurite outgrowth (in words): culture surface coated with the substance
Method: Two chamber slides were pretreated in a number of ways, For laminin coating, 1 ml of MDV containing 25 ug/ml laminin was plated onto glass two-chamber slides overnight at 37° C.; before use, the slides were rinsed with MDV. For fibronectin, slides were treated with a solution containing 1 ml of MDV containing 20 ug/ml fibronectin (Collaborative Research), incubated overnight at 37° C. and rinsed with MDV prior to use. For polyornithine (PORN, Sigma Chemicals), a solution of a concentration of 1 mg/ml PORN in deionized distilled water was added to slides, incubated 1 hr at 37° C., rinsed twice with deionized distilled water, and rinsed once with MDV prior to use. When laminin was used on PORN-treated slides, slides were treated with PORN and then laminin in the usual manner. Coating of slides with poly-D-lysine was performed analogous to treatment with polyornithine. Heparan sulfate was diluted in MDV to a concentration of 10 ug/ml and 1 ml was placed on a slide, maintained overnight at 37° C., and rinsed with deionized distilled water prior to use. Collagen (Gibco) or collage IV (Collaborative Research) was prepared as a 50 ug/ml solution in deionized distilled water and 1 ml of this solution utilized per slide. In the case of collagen, the solution was allowed to air dry. Collage IV was maintained overnight at room temperature, aspirated, air dried and then rinsed twice with deionized distilled water prior to use. When laminin was used with collagen IV, collage IV was prepared as described, and laminin was subsequently added in the usual manner. Matrigel (Collaborative Research) was utilized according to manufacturer's instructions.
Primary cultures were prepared as described above and plated onto a number of different substrates and examined by phase contrast as well as immunofluorescence with antivimentin antisera (FIG. 6).
Matrigel was also examined as a substrate (FIG. 7).

olfactory neurons [3] = assay: Effect of NGF on olfactory neuronal survival and neurite extension; format: cell-based, rat
[4] = read-out: concentration eliciting comparable levels of excitation (50% of maximal adenylyl cyclase augmentation)

Molecule: COc1nccnc1CC(C)C [IBMP, 2-isobutyl-3-methoxypyrazine]
EC50 (adenylyl cyclase; read-out: concentration stimulating to 50% of maximal adenylyl cyclase augmentation): 1 nM
activity at 10 µM (NG-108 cells; NG-108, 0.5 min, time 0.5 min): 103 ± 19%
activity at 10 µM (NG-108 cells; NG-108, 1 min, time 1.0 min): 94 ± 32%
activity at 10 µM (NG-108 cells; NG-108, 5 min, time 5.0 min): 99 ± 16%
activity at 10 µM (NG-108 cells; NG-108, 0.25 h, time 15 min): 70 ± 41%
change of cyclic AMP levels (in words) (NG-108 cells; NG-108 cells, similar treatment): does not alter cyclic AMP levels
activity at 10 µM ([1]; 0.5 min): 350 ± 160%
activity at 10 µM ([1]; 1 min): 250 ± 92%
activity at 10 µM ([1]; 5 min): 270 ± 113%
activity at 10 µM ([1]; 0.25 h, time 15 min): 175 ± 47%
maximum increase in intracellular cyclic AMP over control levels ([1]; olfactory neurons): approximately three
rise in intracellular cyclic AMP levels (in words) ([1]; olfactory neurons): rapid, transient rise in intracellular cyclic AMP levels

EC50 (adenylyl cyclase; [4]): 1000 to 10000 nM
Molecule: CC(C)=CCCC(C)=CC#N [citralva]

EC50 (adenylyl cyclase; [4]): 1000 to 10000 nM
Molecule: CC(C)CC(=O)O [isovaleric acid]

Molecule: collagen
plating efficiency (in words) (olfactory neurons [2]): somewhat better plating efficiency than poly-D-lysine, polyornithine or heparan-sulfate
process / neurite outgrowth (in words) (olfactory neurons [2]): process outgrowth is still stunted

Molecule: fibronectin
process / neurite outgrowth (in words) (olfactory neurons [2]): processes are shorter

Molecule: laminin
plating efficiency (in words) (olfactory neurons [2]): optimal plating efficiency
process / neurite outgrowth (in words) (olfactory neurons [2]): cells extend neurites in a random fashion
aggregation of cells (in words) (olfactory neurons [2]; duplicate suspensions, laminin vs matrigel, FIG. 7): no tendency to reaggregate

B1: NGF: nerve growth factor (NGF, Collaborative Research) (protein, UniProt P01139 122-241, looked up)
Beta-nerve growth factor: SSTHPVFHMGEFSVCDSVSVWVGDKTTATDIKGKEVTVLAEVNINNSVFRQYFFETKCRASNPVESGCRGIDSKHWNSYCTTTHTFVKALTTDEKQAAWRFIRIDTACVCVLSRKATRRG
modifications: Beta-nerve growth factor
survival and neurite extension (in words) (olfactory neurons [3]; NGF 25 ng/ml): necessary for survival of olfactory neurons; also recorded: affects both olfactory neuronal survival and neurite extension in culture
process extension without NGF (in words) (olfactory neurons [3]; by 3 days in culture, without NGF): lose process extension
decrease of cell viability without NGF (olfactory neurons [3]; by 3 days in culture, without vs with 25 ng/ml NGF): approximately 85%
